Data reported in the NIST ThermoML archive (doi:10.1021/je2013704).

Experiment: mn = molality of the nth substance listed, in mol/kg
Conditions: Liquid, Vibrating tube method

[Cl-].[Na+] [sodium chloride] + O
mass density [kg/m3]
Conditions | 298.12 K | 323.07 K | 348.04 K | 372.99 K | 397.97 K | 422.94 K | 447.94 K | 472.96 K
900 kPa, m1 = 1.06 | 1038.78 | 1028.45 | 1014.93 | 998.89 | 980.42 | 959.71 | 936.49 | –
900 kPa, m1 = 3.16 | 1111.08 | 1098.8 | 1084.57 | 1068.6 | 1051.16 | 1031.93 | 1010.87 | –
900 kPa, m1 = 6 | 1194.53 | 1180.58 | 1165.53 | 1149.58 | 1132.48 | 1114.2 | 1094.62 | –
9900 kPa, m1 = 1.06 | 1042.49 | 1032.1 | 1018.61 | 1002.77 | 984.6 | 964.31 | 941.64 | 916.86
9900 kPa, m1 = 3.16 | 1114.33 | 1102.1 | 1087.94 | 1072.14 | 1054.84 | 1036.08 | 1015.28 | 993.19
9900 kPa, m1 = 6 | 1197.36 | 1183.46 | 1168.53 | 1152.7 | 1135.74 | 1117.84 | 1098.38 | 1078.2
19900 kPa, m1 = 1.06 | 1046.61 | 1036.09 | 1022.67 | 1007 | 989.13 | 969.29 | 947.14 | 923.12
19900 kPa, m1 = 3.16 | 1117.89 | 1105.63 | 1091.54 | 1075.95 | 1058.92 | – | – | 998.47
19900 kPa, m1 = 6 | 1200.44 | 1186.57 | 1171.76 | 1156.09 | 1139.35 | 1121.56 | 1102.62 | 1082.67
29900 kPa, m1 = 1.06 | 1050.58 | – | 1026.61 | 1011.16 | 993.51 | 974.04 | 952.41 | 929
29900 kPa, m1 = 3.16 | 1121.4 | 1109.07 | 1095.09 | 1079.61 | 1062.79 | 1044.51 | 1024.61 | 1003.47
29900 kPa, m1 = 6 | 1203.47 | 1189.69 | 1174.98 | 1159.48 | 1142.8 | 1125.33 | 1106.53 | 1087.01
39900 kPa, m1 = 1.06 | 1054.45 | 1043.77 | 1030.49 | 1015.15 | 997.76 | 978.6 | 957.55 | 934.76
39900 kPa, m1 = 3.16 | 1124.91 | 1112.54 | 1098.65 | 1083.24 | 1066.63 | 1048.68 | 1029.15 | 1008.45
39900 kPa, m1 = 6 | 1206.51 | 1192.73 | 1178.07 | 1162.74 | 1146.27 | 1128.98 | 1110.46 | 1091.28
49900 kPa, m1 = 1.06 | 1058.27 | 1047.49 | 1034.25 | 1019.09 | 1002.02 | 983.2 | 962.42 | 940.22
49900 kPa, m1 = 3.16 | 1128.21 | 1115.9 | 1101.95 | 1086.77 | 1070.44 | 1052.68 | – | 1013.17
49900 kPa, m1 = 6 | 1209.49 | 1195.77 | 1181.15 | 1165.95 | 1149.66 | 1132.56 | 1114.27 | 1095.39
59900 kPa, m1 = 1.06 | 1061.93 | 1051.1 | 1037.94 | 1022.88 | 1006.01 | 987.46 | 967.35 | 945.52
59900 kPa, m1 = 3.16 | 1131.46 | 1119.2 | 1105.34 | 1090.25 | 1074.07 | 1056.58 | 1037.71 | 1017.78
59900 kPa, m1 = 6 | 1212.31 | 1198.7 | 1184.21 | 1169 | 1152.86 | 1136.03 | 1118.04 | 1099.39
68400 kPa, m1 = 1.06 | 1065.11 | 1054.12 | 1041.08 | 1026.09 | 1009.32 | 991.15 | 971.22 | 949.91
68400 kPa, m1 = 3.16 | 1134.29 | 1121.87 | 1108.22 | 1093.16 | 1077.08 | 1059.82 | 1041.14 | 1021.53
68400 kPa, m1 = 6 | 1214.78 | 1201.09 | 1186.78 | 1171.6 | 1155.61 | 1138.92 | 1121.1 | 1102.68

[Cl][Al]([Cl])[Cl] [aluminum chloride] + O
mass density [kg/m3]
Conditions | 900 kPa | 9900 kPa | 19900 kPa | 29900 kPa | 39900 kPa | 49900 kPa | 59900 kPa | 68400 kPa
298.12 K, m1 = 1 | 1105.53 | 1108.79 | 1112.3 | 1115.82 | 1119.28 | 1122.69 | 1125.95 | 1128.83
298.12 K, m1 = 2 | 1212.19 | 1214.96 | 1217.92 | 1220.94 | 1223.85 | 1226.72 | 1229.57 | 1232.02
323.07 K, m1 = 1 | 1096.76 | 1099.96 | 1103.44 | 1106.84 | 1110.31 | 1113.67 | 1116.93 | 1119.6
323.07 K, m1 = 2 | 1203.26 | 1206.02 | 1209.01 | 1211.9 | 1214.88 | 1217.8 | 1220.6 | 1222.88
348.04 K, m1 = 1 | 1085.66 | 1088.98 | 1092.48 | 1096.02 | 1099.44 | 1102.74 | 1106.07 | 1108.86
348.04 K, m1 = 2 | 1192.82 | 1196 | 1199.11 | 1202.1 | 1205.07 | 1207.92 | 1210.85 | 1213.26
372.99 K, m1 = 1 | 1072.64 | 1075.97 | 1079.63 | 1083.19 | 1086.72 | 1090.2 | 1093.58 | 1096.34
372.99 K, m1 = 2 | 1181.64 | 1184.73 | 1187.9 | 1191.11 | 1194.19 | 1197.22 | 1200.14 | 1202.66
